Measured values reported in patent publication US20100298557A1, “PYRAZOLOPYRIMIDINE COMPOUND” (Taisho Pharmaceutical Co., Ltd, priority 2006, published 2010).
pIC50: −log10 of the molar value.

How the values were obtained:
Syk = target: T1, Syk (Homo sapiens, UniProt P43405); assay: Syk inhibition test; type: biochemical; settings: poly(L-glu-L-tyr) substrate, ATP 5 μM, [γ-33P]ATP, 30 minutes room temperature; read-out: Syk inhibitory activity IC50
T1 construct: purchased Wako Pure Chemical Industries
Protocol: 10 ng/10 μl/well of a Syk (Wako Pure Chemical Industries) solution, 15 μl of a poly(L-glu-L-tyr) substrate peptide solution (Sigma, final concentration 5 μM), 20 μl of an ATP mixture (ATP: Oriental Yeast, final concentration 5 μM, [γ-33P]ATP: GE Healthcare Biosciences, 0.1 μCi/well) and 5 μl of a test substance solution were added to a 96-well Corning reaction plate, followed by incubation at room temperature for 30 minutes. An assay buffer containing 50 mM Tris pH 7.5, 10 mM MgCl2, 0.1 mM Na3VO4, 1 mM DTT, 0.01% CHAPS and 100 μg/ml BSA was used. The test substance solution was made by dissolving the test substance in DMSO at each concentration. The final concentration of DMSO was 1%. The reaction was terminated by adding 100 μl of a 120 mM phosphoric acid solution as a reaction terminator. Then, the total reaction solution was transferred to MultiScreen (Millipore) and washed with 200 μl of 100 mM phosphoric acid four times.
After drying, 20 μl of MicroScint-O (PerkinElmer) was added and the radioactivity was measured by TopCount (PerkinElmer). The ratio of the radioactivity when the test substance was added to the radioactivity when the test substance was not added was determined. The IC50 value was calculated from the inhibition rate at each concentration and used as an index of inhibitory activity.

PCA reaction = assay: Rat passive cutaneous anaphylaxis (PCA) test; type: in vivo; settings: male Wistar rats, oral administration four hours prior to antigen challenge, blue spot area
Protocol: The back of seven-week-old male Wistar rats was clipped under light anesthesia with ether, and the rats were sensitized by intradermal administration of 100 μl of 25 ng/ml anti-dinitrophenyl-IgE (DNP-IgE) (Sigma) to the back. 24 hours after the sensitization, 1 ml of a 0.5% Evans blue solution containing 1 mg of DNP-BSA was intravenously administered. Further, 30 minutes after the administration, the rats were sacrificed and the back skin was collected. The test compound, or only a vehicle as a control, was orally administered four hours prior to the antigen challenge. The length and breadth of the skin blue spot were calipered, and the area of the blue spot was calculated as length×breadth. The PCA inhibition rate by the test substance was calculated by the following formula. In the formula, • C represents: a blue spot area by PCA reaction when only the vehicle was administered, and • X represents: a blue spot area by PCA reaction when the test compound was administered. Inhibition rate (%)=(C−X)×100/C

Abl = target: T2, Abl (Homo sapiens, UniProt P00519); assay: Abl inhibition test; type: biochemical; settings: Abltide substrate, ATP 6 μM, [γ-33P]ATP, 40 minutes room temperature; read-out: Abl inhibitory activity IC50
T2 construct: purchased Wako Pure Chemical Industries
T2 sequence (P00519 whole entry, species assumed): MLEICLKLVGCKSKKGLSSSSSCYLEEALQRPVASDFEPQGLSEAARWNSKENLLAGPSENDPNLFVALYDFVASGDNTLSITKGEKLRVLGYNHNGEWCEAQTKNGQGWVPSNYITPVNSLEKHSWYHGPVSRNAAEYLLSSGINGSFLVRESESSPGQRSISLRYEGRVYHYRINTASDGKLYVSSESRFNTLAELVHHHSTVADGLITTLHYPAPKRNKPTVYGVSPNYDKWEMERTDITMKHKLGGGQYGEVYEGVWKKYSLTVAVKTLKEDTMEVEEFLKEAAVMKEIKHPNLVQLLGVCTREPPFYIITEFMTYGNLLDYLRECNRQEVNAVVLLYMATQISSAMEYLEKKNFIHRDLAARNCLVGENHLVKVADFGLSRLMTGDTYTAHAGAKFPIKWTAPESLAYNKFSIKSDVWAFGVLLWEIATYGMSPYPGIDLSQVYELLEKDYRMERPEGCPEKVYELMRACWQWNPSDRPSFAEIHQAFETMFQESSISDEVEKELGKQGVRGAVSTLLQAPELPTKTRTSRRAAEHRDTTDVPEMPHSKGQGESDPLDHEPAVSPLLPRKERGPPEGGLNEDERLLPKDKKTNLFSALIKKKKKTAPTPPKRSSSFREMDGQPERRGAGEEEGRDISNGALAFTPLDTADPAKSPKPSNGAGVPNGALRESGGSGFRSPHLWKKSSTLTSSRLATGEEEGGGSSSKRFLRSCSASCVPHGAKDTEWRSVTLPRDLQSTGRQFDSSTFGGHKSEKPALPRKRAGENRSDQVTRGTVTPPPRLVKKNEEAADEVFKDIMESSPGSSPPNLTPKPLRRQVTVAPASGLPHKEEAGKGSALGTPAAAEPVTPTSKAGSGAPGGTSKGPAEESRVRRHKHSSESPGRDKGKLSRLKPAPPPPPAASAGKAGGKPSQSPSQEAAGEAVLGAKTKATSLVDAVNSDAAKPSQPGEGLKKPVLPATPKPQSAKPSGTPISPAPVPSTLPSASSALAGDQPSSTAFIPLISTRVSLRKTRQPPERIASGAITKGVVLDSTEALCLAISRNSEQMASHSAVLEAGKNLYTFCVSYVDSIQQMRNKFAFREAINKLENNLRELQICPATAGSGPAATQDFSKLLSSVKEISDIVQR
Protocol: 5 ng/5 μl/well of an Abl (Wako Pure Chemical Industries) solution, 30 μl of an Abltide substrate peptide solution (Wako Pure Chemical Industries; final concentration 5 μM) and 5 μl of a test substance solution were added to a 96-well plate (Corning), followed by incubation at room temperature for 15 minutes. Then, 10 μl of an ATP mixture (ATP: Oriental Yeast, final concentration 6 μM, [γ-33P]ATP: GE Healthcare Biosciences, 0.06 μCi/well, MgAcetate: Cosmo Bio, final concentration 10 mM) was added, followed by incubation at room temperature for 40 minutes. The Abl solution was prepared using a kinase buffer (20 mM MOPS pH 7.0, 1 mM EDTA, 0.1% β-mercaptoethanol, 0.01% Brij-35, 5% glycerol, 1 mg/ml BSA). The substrate peptide solution and the ATP mixture were prepared using 8 mM MOPS pH 7.0 and 0.2 mM
EDTA. The test substance solution was made by dissolving the test substance in DMSO at each concentration. The final concentration of DMSO was 1%. The reaction was terminated by adding 100 μl of a 100 mM phosphoric acid solution as a reaction terminator. Then, the total reaction solution was transferred to a 96-well MultiScreen plate (Millipore) and washed with 200 μl of 100 mM phosphoric acid three times. After drying, 20 μl of MicroScint-O (PerkinElmer) was added and the radioactivity was measured by TopCount (PerkinElmer). After subtracting the radioactivity in the well to which the Abltide substrate peptide was not added from each radioactivity, the ratio of the radioactivity when the test substance was added to the radioactivity when the test substance was not added was determined. The IC50 value was calculated from the inhibition rate at each concentration and used as an index of inhibitory activity.

[1] = tested on: Human mast cell line LAD cells; assay: Degranulation test using human mast cell line LAD cells; type: cell-based; settings: IgE-sensitized LAD cells, anti-human IgE stimulation, β-hexosaminidase release, read-out: degranulation inhibitory activity IC50
Protocol: Human mast cell line LAD cells were sensitized with human IgE (Cosmo Bio; final concentration 1 μg/ml) overnight. The cells were harvested, and then washed with PBS (Invitrogen) and washed again with Tyrode's buffer solution (Sigma) containing 0.1% BSA (Sigma). The cells were seeded into a 96-well plate at 10^5 cells/well and then the compound (0.1% final concentration DMSO solution) was added, followed by incubation at 37° C. for 15 minutes. Rabbit anti-human IgE (Dako Japan; final concentration 10 μg/ml) or control Ig (Dako Japan; final concentration 10 μg/ml) was added, followed by incubation at 37° C. for 30 minutes. The supernatant was recovered and p-nitrophenyl-2-acetamido-2-deoxy-β-D-glucopyranoside (Sigma; final concentration 4 mM), a substrate of β-hexosaminidase which is an index of degranulation, was added, followed by incubation at 37° C. for 45 minutes. Glycine (Wako; final concentration 0.2 M, pH 10.4) was added and the reaction was terminated. Then, the absorbance at 405 nm was measured.
The inhibition rate (%) was calculated as (anti-IgE antibody degranulation rate—compound-added group degranulation rate)/(anti-IgE antibody degranulation rate—control antibody degranulation rate)×100. The IC50 value was calculated from the inhibition rate at each concentration and used as an index of inhibitory activity.

[2] = tested on: collagen-induced arthritis; assay: Mouse collagen-induced arthritis (CIA) test; type: in vivo; settings: male DBA/1 mice, oral administration for 42 consecutive days, arthritis score
Protocol: Seven-week-old male DBA/1 mice were sensitized by intradermal administration of bovine type II collagen/complete Freund's adjuvant emulsion (150 μg/0.1 ml/mouse) to the tail head. 21 days after the primary sensitization, the mice were similarly boosted by intradermal administration of bovine type II collagen/complete Freund's adjuvant emulsion (100 μg/0.1 ml/mouse) to the tail head. After the booster, the degree of arthritis was scored by observation for each extremity twice a week on the following scale. • 0: No arthritis • 1: Edema in one finger joint • 2: Edema in two or more finger joints or instep • 3: Edema in tarsus or ankle • 4: Severe edema or joint deformation Oral administration of the test compound, or only a vehicle as a control, was started 30 minutes prior to the booster, and administration was carried out for 42 consecutive days thereafter. For each day passed, the total score for the extremities was provided as an arthritis score for one individual (0 to 16), and the arthritis onset inhibitory effect was evaluated as an average value for eight cases using the vehicle-administered group as a control group.

Row | pIC50 (Syk) | pIC50 (Abl) | SMILES | inhibition of PCA reaction (PCA reaction) | pIC50 [1] | inhibition of the onset of arthritis in the CIA model [2]
1 | 6.80 | ≥ 7.30 | CS(=O)(=O)c1n[nH]c2nc(Nc3ccc(N4CCOCC4)cc3)nc(NC3CC3)c12 [Compound 6, N^4-Cyclopropyl-3-(methylsulfonyl)-N^6-(4-morpholin-4-ylphenyl)-1H-pyrazolo[3,4-d]pyrimidine-4,6-diamine] | excellently inhibited PCA reaction |  | 
2 |  |  | CS(=O)(=O)c1n[nH]c2nc(Nc3ccc(N4CCOCC4)cc3)nc(NC3CC3)c12 [Compound 7] |  | 7.62 | excellently inhibited the onset of arthritis
3 | ≥ 6.70 | ≥ 8.00 | CS(=O)(=O)c1n[nH]c2nc(Nc3ccc(N4CCCC(C(=O)N5CCOCC5)C4)cc3)nc(NC3CC3)c12 (centres unmarked) [Compound 143] |  | ≥ 7.00 | 
